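A five-concentration, 48-hour dose response in 96-well plates underlies each endpoint, interpolated linearly between surrounding concentrations. Here, GI50 denotes the concentration required for 50% inhibition of growth. TGI: total growth inhibition.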
Experiments:
Experiment in all cases: NCI-60 cell line screen, 48 h
[1] = tested on: SK-MEL-2 melanoma
[2] = tested on: UACC-62 melanoma
[3] = tested on: NCI-H226 lung
[4] = tested on: A498 renal
[5] = tested on: SW-620 colon
[6] = tested on: OVCAR-5 ovarian
[7] = tested on: SK-OV-3 ovarian
[8] = tested on: OVCAR-8 ovarian
[9] = tested on: SF-268 CNS
[10] = tested on: HCT-116 colon
[11] = tested on: SF-295 CNS
[12] = tested on: DU-145 prostate
[13] = tested on: EKVX NSCLC
[14] = tested on: OVCAR-3 ovarian
[15] = tested on: RPMI-8226 leukemia
[16] = tested on: LOX IMVI melanoma
[17] = tested on: KM12 colon
[18] = tested on: NCI/ADR-RES ovarian
[19] = tested on: OVCAR-4 ovarian
[20] = tested on: MDA-N
[21] = tested on: ACHN renal
[22] = tested on: MDA-MB-231 breast
[23] = tested on: MCF7 breast
[24] = tested on: U251 CNS
[25] = tested on: MOLT-4 leukemia
[26] = tested on: MDA-MB-435
[27] = tested on: SNB-75 CNS
[28] = tested on: NCI-H23 lung
[29] = tested on: HOP-92 NSCLC
[30] = tested on: HCT-15 colon
[31] = tested on: UACC-257 melanoma
[32] = tested on: HOP-62 NSCLC
[33] = tested on: SNB-19 CNS
[34] = tested on: HT29 colon
[35] = tested on: M14 melanoma
[36] = tested on: A549 NSCLC
[37] = tested on: PC-3 prostate
[38] = tested on: 786-0 renal
[39] = tested on: CCRF-CEM leukemia
[40] = tested on: SK-MEL-28 melanoma
[41] = tested on: SK-MEL-5 melanoma
[42] = tested on: UO-31 renal
[43] = tested on: COLO 205 colon
[44] = tested on: IGROV1 ovarian
[45] = tested on: HS 578T breast
[46] = tested on: K-562 leukemia
[47] = tested on: SR leukemia
[48] = tested on: SN12C renal
[49] = tested on: T-47D breast
[50] = tested on: HCC-2998 colon
[51] = tested on: TK-10 renal
[52] = tested on: CAKI-1 renal
[53] = tested on: MALME-3M melanoma
[54] = tested on: HL-60(TB) leukemia
[55] = tested on: RXF 393 renal
[56] = tested on: SF-539 CNS
[57] = tested on: NCI-H460 lung
[58] = tested on: BT-549 breast
[59] = tested on: NCI-H522 lung

O=C1/C(=C/c2ccccc2)NC(=S)N1CN1CCCCC1
TGI [1]: > 100 µM | TGI [2]: > 100 µM | TGI [3]: > 100 µM | TGI [4]: > 100 µM | TGI [5]: > 100 µM | TGI [6]: > 100 µM | TGI [7]: > 100 µM | TGI [8]: > 100 µM | TGI [9]: > 100 µM | TGI [10]: > 100 µM | TGI [11]: > 100 µM | TGI [12]: > 100 µM | TGI [13]: > 100 µM | TGI [14]: > 100 µM | TGI [15]: > 100 µM | TGI [16]: > 100 µM | TGI [17]: > 100 µM | TGI [18]: > 100 µM | TGI [19]: 92.6 µM | TGI [20]: > 100 µM | TGI [21]: > 100 µM | TGI [22]: > 100 µM | TGI [23]: > 100 µM | TGI [24]: > 100 µM | TGI [25]: > 100 µM | TGI [26]: > 100 µM | TGI [27]: > 100 µM | TGI [28]: > 100 µM | TGI [29]: > 100 µM | TGI [30]: > 100 µM | TGI [31]: > 100 µM | TGI [32]: > 100 µM | TGI [33]: > 100 µM | TGI [34]: > 100 µM | TGI [35]: > 100 µM | TGI [36]: > 100 µM | TGI [37]: > 100 µM | TGI [38]: > 100 µM | TGI [39]: > 100 µM | TGI [40]: > 100 µM | TGI [41]: > 100 µM | TGI [42]: > 100 µM | TGI [43]: > 100 µM | TGI [44]: > 100 µM | TGI [45]: > 100 µM | TGI [46]: > 100 µM | TGI [47]: > 100 µM | TGI [48]: > 100 µM

CC(=O)OCC12CCC3C4(C)CCCC(C)(C)C4CCC3(C)C1CC(C1=CC(=O)OC1O)O2 (stereo unspecified)
TGI [2]: 4.82 µM | TGI [5]: 6.47 µM | TGI [7]: 6.32 µM | TGI [8]: 3.91 µM | TGI [11]: 5.56 µM | TGI [12]: 6.64 µM | TGI [13]: 5.92 µM | TGI [15]: > 10 µM | TGI [16]: 2.54 µM | TGI [17]: 3.54 µM | TGI [20]: 2.89 µM | TGI [49]: > 10 µM | TGI [22]: 4.44 µM | TGI [23]: > 10 µM | TGI [25]: 0.797 µM | TGI [50]: 3.67 µM | TGI [27]: 3.32 µM | TGI [28]: 3.86 µM | TGI [51]: 3.31 µM | TGI [52]: 2.81 µM | TGI [30]: 2.5 µM | TGI [31]: 3.63 µM | TGI [32]: 6.45 µM | TGI [34]: 3.58 µM | TGI [35]: 2.96 µM | TGI [36]: > 10 µM | TGI [37]: 2.63 µM | TGI [38]: 2.28 µM | TGI [39]: > 10 µM | TGI [53]: 2.44 µM | TGI [40]: 3.44 µM | TGI [41]: 3.44 µM | TGI [54]: 2.76 µM | TGI [43]: 4.18 µM | TGI [44]: 3.6 µM | TGI [46]: 4.72 µM | TGI [55]: 3.82 µM | TGI [47]: 0.846 µM | TGI [48]: 3.09 µM

COc1cc2c3c(n(CCCBr)c(=O)c2cc1OC)-c1ccc(F)cc1C3=O
GI50 [1]: 23 µM | TGI [1]: 80.6 µM | GI50 [2]: 3.93 µM | TGI [2]: 24.5 µM | GI50 [3]: 28 µM | TGI [3]: > 100 µM | GI50 [4]: 14.8 µM | TGI [4]: 40.9 µM | GI50 [5]: 7.02 µM | TGI [5]: > 100 µM | GI50 [6]: 50 µM | TGI [6]: > 100 µM | GI50 [7]: 15.8 µM | TGI [7]: 59 µM | GI50 [8]: 26.4 µM | TGI [8]: > 100 µM | GI50 [9]: 10.4 µM | TGI [9]: > 100 µM | GI50 [10]: 5.72 µM | TGI [10]: 30.6 µM | GI50 [11]: 1.69 µM | TGI [11]: 9.23 µM | GI50 [12]: 4.33 µM | TGI [12]: 20.6 µM | GI50 [13]: 49.5 µM | TGI [13]: > 100 µM | GI50 [56]: 3.54 µM | TGI [56]: 15.2 µM | GI50 [14]: 24.6 µM | TGI [14]: 99.6 µM | GI50 [15]: 12.6 µM | TGI [15]: 38.1 µM | GI50 [16]: 5.48 µM | TGI [16]: 30.1 µM | GI50 [17]: 35.3 µM | TGI [17]: > 100 µM | GI50 [18]: 13.3 µM | TGI [18]: > 100 µM | GI50 [19]: 40 µM | TGI [19]: > 100 µM | GI50 [21]: 4.47 µM | TGI [21]: 36.3 µM | GI50 [49]: 4.86 µM | TGI [49]: 62 µM | GI50 [22]: 66.3 µM | TGI [22]: > 100 µM | GI50 [23]: 4.1 µM | TGI [23]: > 100 µM | GI50 [24]: 3.74 µM | TGI [24]: 24.3 µM | GI50 [25]: 2.89 µM | TGI [25]: 10.6 µM | GI50 [26]: 43.9 µM | TGI [26]: > 100 µM | GI50 [50]: 13.7 µM | TGI [50]: > 100 µM | GI50 [27]: 12.9 µM | TGI [27]: 28.2 µM | GI50 [28]: 17.8 µM | TGI [28]: 76.4 µM | GI50 [29]: 4.07 µM | TGI [29]: 28.4 µM | GI50 [51]: 32.7 µM | TGI [51]: > 100 µM | GI50 [52]: 7.9 µM | TGI [52]: 33.7 µM | GI50 [30]: 48.7 µM | TGI [30]: > 100 µM | GI50 [31]: 76.4 µM | TGI [31]: > 100 µM | GI50 [32]: 4.21 µM | TGI [32]: 25 µM | GI50 [57]: 2.38 µM | TGI [57]: 47.2 µM | GI50 [33]: 6.34 µM | TGI [33]: > 100 µM | GI50 [34]: 16.9 µM | TGI [34]: > 100 µM | GI50 [35]: 8.92 µM | TGI [35]: > 100 µM | GI50 [36]: 36.8 µM | TGI [36]: > 100 µM | GI50 [37]: 45.8 µM | TGI [37]: > 100 µM | GI50 [38]: 4.73 µM | TGI [38]: 17.9 µM | GI50 [39]: 1.99 µM | TGI [39]: 8.94 µM | GI50 [58]: 13.9 µM | TGI [58]: 49.7 µM | GI50 [53]: 43 µM | TGI [53]: > 100 µM | GI50 [40]: 39.8 µM | TGI [40]: > 100 µM | GI50 [41]: 10.9 µM | TGI [41]: 24.1 µM | GI50 [42]: 5.57 µM | TGI [42]: 60.4 µM | GI50 [54]: 24.8 µM | TGI [54]: > 100 µM | GI50 [43]: 33.4 µM | TGI [43]: > 100 µM | GI50 [45]: 32 µM | TGI [45]: > 100 µM | GI50 [46]: 16.3 µM | TGI [46]: > 100 µM | GI50 [59]: 4.9 µM | TGI [59]: 36.3 µM | GI50 [55]: 34.4 µM | TGI [55]: > 100 µM | GI50 [47]: 0.28 µM | TGI [47]: 1.73 µM | GI50 [48]: 15.6 µM | TGI [48]: > 100 µM

— PubChem BioAssay (NCI)
